This passage reports IC50 results from patent publication US10072001B2, “Tank-binding kinase inhibitor compounds” (Gilead Sciences, Inc., priority 2014, dated 2018).

Chain of IKKε (Q14164 whole entry): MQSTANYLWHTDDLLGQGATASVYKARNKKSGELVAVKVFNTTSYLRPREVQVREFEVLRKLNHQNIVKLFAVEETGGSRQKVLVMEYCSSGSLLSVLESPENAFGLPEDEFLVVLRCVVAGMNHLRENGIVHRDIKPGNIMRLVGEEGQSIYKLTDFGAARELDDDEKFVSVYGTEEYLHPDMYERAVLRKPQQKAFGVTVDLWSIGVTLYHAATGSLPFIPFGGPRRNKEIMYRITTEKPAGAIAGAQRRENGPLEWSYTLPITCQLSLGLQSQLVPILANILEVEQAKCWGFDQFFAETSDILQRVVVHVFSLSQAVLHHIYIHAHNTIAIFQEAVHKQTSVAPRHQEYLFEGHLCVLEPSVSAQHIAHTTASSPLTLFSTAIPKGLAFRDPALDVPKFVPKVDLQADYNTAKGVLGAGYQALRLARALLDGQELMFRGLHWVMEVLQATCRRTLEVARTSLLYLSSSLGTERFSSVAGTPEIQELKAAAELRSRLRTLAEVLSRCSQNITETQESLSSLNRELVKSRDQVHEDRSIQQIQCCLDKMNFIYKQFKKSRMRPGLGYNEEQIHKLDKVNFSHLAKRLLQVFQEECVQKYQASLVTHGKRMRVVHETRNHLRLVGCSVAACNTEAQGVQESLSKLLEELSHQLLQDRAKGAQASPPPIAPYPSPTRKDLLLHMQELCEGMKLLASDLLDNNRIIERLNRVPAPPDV

In one experiment the target is IKKε (Homo sapiens (Human), UniProt Q14164). Description: TR-FRET kinase assay, IKKε. It counts as biochemical. To be noted: full length recombinant IKKε 0.3 nM, 2x Km ATP, 1 μM peptide, 240 min at 25° C.; geometric mean of minimum four determinations. The source says: Biological Assay for TBK1 and IKKs:
On to `N#Cc1cc(-c2ncnc3[nH]ccc23)ccc1OC1CCOCC1` [Example 108, 5-(7H-pyrrolo[2,3-d]pyrimidin-4-yl)-2-((tetrahydro-2H-pyran-4-yl)oxy)benzonitrile], for which the IC50 came to 2230 nM. Same read-out and setting: the same measure for `N#CCC(=O)N1CCN(c2ccc(-c3cc4c(-c5ccc(OC6CCOCC6)c(C#N)c5)ccnc4[nH]3)cc2)CC1` [Example 57, 5-(2-(4-(4-(2-cyanoacetyl)piperazin-1-yl)phenyl)-1H-pyrrolo[2,3-b]pyridin-4-yl)-2-((tetrahydro-2H-pyran-4-yl)oxy)benzonitrile]: 2.98 nM.

Consider `N#Cc1cc(-c2ncnc3[nH]c(C4=CCC5(CC4)OCCO5)cc23)ccc1OC1CCN(C(=O)CO)CC1` [Example 175, 5-(6-(1,4-dioxaspiro[4.5]dec-7-en-8-yl)-7H-pyrrolo[2,3-d]pyrimidin-4-yl)-2-((1-(2-hydroxyacetyl)piperidin-4-yl)oxy)benzonitrile], for which the concentration for half-maximal inhibition (IC50) is 5.84 nM. As for `N#Cc1cc(-c2ccnc3[nH]c(-c4ccc(N5CC6(COC6)C5)cc4)cc23)ccc1OC1CCOCC1` [Example 46, 5-(2-(4-(2-oxa-6-azaspiro[3.3]heptan-6-yl)phenyl)-1H-pyrrolo[2,3-b]pyridin-4-yl)-2-((tetrahydro-2H-pyran-4-yl)oxy)benzonitrile], the 50% inhibitory concentration (IC50) is 13 nM. Regarding `COC(=O)c1ccc(-c2cc3c(-c4ccc(OC5CCOCC5)c(C#N)c4)ccnc3[nH]2)cc1` [Example 238, Methyl 4-(4-(3-cyano-4-((tetrahydro-2H-pyran-4-yl)oxy)phenyl)-1H-pyrrolo[2,3-b]pyridin-2-yl)benzoate], the IC50 turned out to be 1000 nM.

The target in another experiment is TBK1 (Homo sapiens (Human), UniProt Q9UHD2). Description: TR-FRET kinase assay, TBK1. To be noted: read-out: TBK1-IC50; full length recombinant TBK1 2.5 nM, 2x Km ATP, 1 μM peptide, 240 min at 25° C.; geometric mean of minimum four determinations.
Chain of TBK1 (Q9UHD2 whole entry): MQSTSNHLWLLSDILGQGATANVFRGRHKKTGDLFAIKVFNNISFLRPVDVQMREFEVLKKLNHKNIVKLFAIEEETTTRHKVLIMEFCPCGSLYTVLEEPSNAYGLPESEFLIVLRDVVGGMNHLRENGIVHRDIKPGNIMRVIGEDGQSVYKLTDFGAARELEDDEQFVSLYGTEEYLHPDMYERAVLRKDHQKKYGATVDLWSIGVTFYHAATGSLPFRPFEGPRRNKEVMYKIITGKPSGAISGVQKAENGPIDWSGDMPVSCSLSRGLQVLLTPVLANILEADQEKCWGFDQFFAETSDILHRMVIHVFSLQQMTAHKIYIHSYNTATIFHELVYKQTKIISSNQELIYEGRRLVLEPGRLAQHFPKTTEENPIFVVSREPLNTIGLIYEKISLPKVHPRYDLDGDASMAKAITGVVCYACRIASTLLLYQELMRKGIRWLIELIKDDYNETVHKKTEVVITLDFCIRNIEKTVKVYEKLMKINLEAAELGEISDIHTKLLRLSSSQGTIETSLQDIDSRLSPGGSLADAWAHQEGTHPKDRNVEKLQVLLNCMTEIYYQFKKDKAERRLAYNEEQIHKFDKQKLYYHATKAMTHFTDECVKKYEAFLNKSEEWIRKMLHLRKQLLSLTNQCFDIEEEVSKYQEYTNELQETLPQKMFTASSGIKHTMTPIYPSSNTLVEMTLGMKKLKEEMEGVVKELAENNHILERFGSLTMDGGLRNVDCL
In the case of `N#Cc1cc(-c2ncnc3[nH]c(-c4ccc(N5CCN(CC(F)F)CC5)cc4)cc23)ccc1OC1CCN(C(=O)CO)CC1` [Example 264, 5-(6-(4-(4-(2,2-difluoroethyl)piperazin-1-yl)phenyl)-7H-pyrrolo[2,3-d]pyrimidin-4-yl)-2-((1-(2-hydroxyacetyl)piperidin-4-yl)oxy)benzonitrile], the IC50 was found to be 0.91 nM. For the molecule `Cc1ncc(-c2nc3c(-c4ccc(OC5CCOCC5)c(C#N)c4)ncnc3[nH]2)s1` [Example 231, 5-(8-(2-methylthiazol-5-yl)-9H-purin-6-yl)-2-((tetrahydro-2H-pyran-4-yl)oxy)benzonitrile], the IC50 stood at 52.8 nM. Turning to `COc1cc(-c2cc3c(-c4ccc(OC5CCOCC5)c(C#N)c4)ncnc3[nH]2)ccc1N1CCOCC1` [Example 136, 5-(6-(3-methoxy-4-morpholinophenyl)-7H-pyrrolo[2,3-d]pyrimidin-4-yl)-2-((tetrahydro-2H-pyran-4-yl)oxy)benzonitrile], the 50% inhibitory concentration (IC50) was 1 nM.

As to `CC(C)(O)c1ccc(-c2cc3c(-c4ccc(OC5CCN(C(=O)CO)CC5)c(C#N)c4)ncnc3[nH]2)cn1` [Example 132, 2-((1-(2-hydroxyacetyl)piperidin-4-yl)oxy)-5-(6-(6-(2-hydroxypropan-2-yl)pyridin-3-yl)-7H-pyrrolo[2,3-d]pyrimidin-4-yl)benzonitrile], the 50% inhibitory concentration (IC50) worked out at 3.26 nM. Take `N#Cc1cc(-c2cc3c(-c4ccc(OC5CCOCC5)c(C#N)c4)ncnc3[nH]2)ccc1OC1CCOCC1` [Example 223, 5,5′-(7H-pyrrolo[2,3-d]pyrimidine-4,6-diyl)bis(2-((tetrahydro-2H-pyran-4-yl)oxy)benzonitrile)]: the IC50 turned out to be 2.84 nM. Take `N#Cc1cc(-c2ncnc3[nH]c(-c4ccc(N5CCOCC5)nc4)cc23)ccc1OC1CCOCC1` [Example 155, 5-(6-(6-morpholinopyridin-3-yl)-7H-pyrrolo[2,3-d]pyrimidin-4-yl)-2-((tetrahydro-2H-pyran-4-yl)oxy)benzonitrile]: the half-maximal inhibitory concentration (IC50) came out at 4.39 nM. Still for that read-out and setting: the same measure for `N#Cc1cc(-c2ccnc3[nH]c(C#CC4CCOCC4)cc23)ccc1OC1CCOCC1` [Example 35, 5-(2-((tetrahydro-2H-pyran-4-yl)ethynyl)-1H-pyrrolo[2,3-b]pyridin-4-yl)-2-((tetrahydro-2H-pyran-4-yl)oxy)benzonitrile]: 52.8 nM.
